The values that follow come from patent US20070082880A1 (priority 2005, published 2007).

Counter-ions that a name gives are not always drawn.

In general, IC50 refers to the concentration at which inhibition is half-maximal. For orientation: melting point means the temperature, or range, at which the solid turns liquid.

T1 sequence (Q04759 whole entry): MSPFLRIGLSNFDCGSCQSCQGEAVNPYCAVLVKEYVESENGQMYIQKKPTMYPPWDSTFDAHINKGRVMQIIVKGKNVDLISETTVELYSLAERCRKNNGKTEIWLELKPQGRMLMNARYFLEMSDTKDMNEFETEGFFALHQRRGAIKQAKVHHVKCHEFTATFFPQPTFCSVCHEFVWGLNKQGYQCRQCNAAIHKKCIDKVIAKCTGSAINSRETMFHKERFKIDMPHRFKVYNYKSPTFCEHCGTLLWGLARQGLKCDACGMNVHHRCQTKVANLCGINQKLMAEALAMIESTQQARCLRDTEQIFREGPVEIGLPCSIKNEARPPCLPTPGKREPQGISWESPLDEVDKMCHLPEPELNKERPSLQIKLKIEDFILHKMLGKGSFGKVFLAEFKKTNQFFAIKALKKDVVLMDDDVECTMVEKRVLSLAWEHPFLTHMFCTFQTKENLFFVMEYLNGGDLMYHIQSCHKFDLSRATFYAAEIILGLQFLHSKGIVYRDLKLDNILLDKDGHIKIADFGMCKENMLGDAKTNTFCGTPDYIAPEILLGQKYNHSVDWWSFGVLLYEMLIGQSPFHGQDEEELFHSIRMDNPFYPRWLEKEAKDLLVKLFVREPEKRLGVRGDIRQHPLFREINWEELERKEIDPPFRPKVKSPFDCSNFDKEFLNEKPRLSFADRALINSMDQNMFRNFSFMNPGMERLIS

The first data set has as its target T1, human PKCθ full length enzyme (Homo sapiens, UniProt Q04759).
T1 construct: human PKCθ full length enzyme (Panvera Catalog No. P2996); purchased Panvera P2996
Description: PKCθ IMAP Assay. Format: biochemical. The note with it: average value when one or more samples were tested; ATP 6 uM, PKCθ 1 nM. Summed up: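 Full-length human PKCθ (1 nM final) with 6 uM ATP and 100 nM 5FAM-labelled peptide, 5% DMSO, 3.0 mM DTT in reaction buffer. 25 min at room temperature; IMAP bead binding 20 min, fluorescence polarization read. Compounds 2:1 serially diluted; no-ATP and no-enzyme wells as controls.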
`N#Cc1cnc2sc(-c3ccccc3)cc2c1NCc1ccc2[nH]ccc2c1` [Compound 124, 4-(1H-indol-5-ylmethylamino)-2-phenylthieno[2,3-b]pyridine-5-carbonitrile]: the IC50 came to 3700 nM.

`N#Cc1cnc2sc(-c3ccccc3)cc2c1Oc1ccc2[nH]ccc2c1` [Compound 130, 4-(1H-indol-5-yloxy)-2-phenylthieno[2,3-b]pyridine-5-carbonitrile] registered a half-maximal inhibitory concentration (IC50) of 9300 nM. Compared with the last compound, the IC50 is about 2.5-fold higher.

As to `N#Cc1cnc2sc(I)cc2c1Nc1cnc2[nH]ccc2c1Cl` [Compound 507, 4-[(4-chloro-1H-pyrrolo[2,3-b]pyridin-5-yl)amino]-2-iodothieno[2,3-b]pyridine-5-carbonitrile], the half-inhibitory concentration (IC50) worked out at 69 nM.

With `Cc1c(Nc2c(C#N)cnc3scc(-c4cccc(CN(C)C)c4)c23)ccc2[nH]ccc12` [Compound 508, 3-{3-[(dimethylamino)methyl]phenyl}-4-[(4-methyl-1H-indol-5-yl)amino]thieno[2,3-b]pyridine-5-carbonitrile], the IC50 turned out to be 11 nM.

With `Cc1c(Nc2c(C#N)cnc3sc(-c4cccc(NS(=O)(=O)N(C)C)c4)cc23)ccc2[nH]ccc12` [Compound 509, N′-(3-{5-cyano-4-[(4-methyl-1H-indol-5-yl)amino]thieno[2,3-b]pyridin-2-yl}phenyl)-N,N-dimethylsulfamide], the IC50 stood at 51 nM. This IC50 lies about 4.6-fold higher than the previous one.

With `Cc1c(Nc2c(C#N)cnc3sc(-c4cccc(S(=O)(=O)NCCO)c4)cc23)ccc2[nH]ccc12` [Compound 510, 3-{5-cyano-4-[(4-methyl-1H-indol-5-yl)amino]thieno[2,3-b]pyridin-2-yl}-N-(2-hydroxyethyl)benzenesulfonamide], the half-maximal inhibitory concentration (IC50) was 17 nM.

With `Cc1c(Nc2c(C#N)cnc3sc(-c4cc(C(=O)N(C)C)ccc4F)cc23)ccc2[nH]ccc12` [Compound 511, 3-{5-cyano-4-[(4-methyl-1H-indol-5-yl)amino]thieno[2,3-b]pyridin-2-yl}-4-fluoro-N,N-dimethylbenzamide], the IC50 was found to be 66 nM.

Consider `Cc1c(Nc2c(C#N)cnc3sc(-c4cc(F)cc(C(=O)N(C)C)c4)cc23)ccc2[nH]ccc12` [Compound 512, 3-{5-cyano-4-[(4-methyl-1H-indol-5-yl)amino]thieno[2,3-b]pyridin-2-yl}-5-fluoro-N,N-dimethylbenzamide], for which the IC50 was 38 nM.

Take `COCCOc1ccc(-c2cc3c(Nc4ccc5[nH]ccc5c4C)c(C#N)cnc3s2)cc1OCCOC` [Compound 513, 2-[3,4-bis(2-methoxyethoxy)phenyl]-4-[(4-methyl-1H-indol-5-yl)amino]thieno[2,3-b]pyridine-5-carbonitrile]: the IC50 worked out at 1610 nM.

In the case of `COc1ccc(C=O)c(-c2cc3c(Nc4ccc5[nH]ccc5c4C)c(C#N)cnc3s2)c1` [Compound 514, 2-(2-formyl-5-methoxyphenyl)-4-[(4-methyl-1H-indol-5-yl)amino]thieno[2,3-b]pyridine-5-carbonitrile], the midpoint of inhibition, the IC50, lay at 71 nM.

The compound `COc1ccc(CN(C)C)c(-c2cc3c(Nc4ccc5[nH]ccc5c4C)c(C#N)cnc3s2)c1` [Compound 515, 2-{2-[(dimethylamino)methyl]-5-methoxyphenyl}-4-[(4-methyl-1H-indol-5-yl)amino]thieno[2,3-b]pyridine-5-carbonitrile] registered a half-inhibitory concentration (IC50) of 16 nM.

`CC(C)c1c(-c2cccc(CN(C)C)c2)sc2ncc(C#N)c(Nc3ccc4[nH]ccc4c3)c12` [Compound 516, 2-{3-[(dimethylamino)methyl]phenyl}-4-(1H-indol-5-ylamino)-3-isopropylthieno[2,3-b]pyridine-5-carbonitrile] registered an IC50 of 1210 nM.

Compound `COc1ccc(CNCCO)cc1-c1cc2c(Nc3ccc4[nH]ccc4c3C)c(C#N)cnc2s1` [Compound 517, 2-(5-{[(2-hydroxyethyl)amino]methyl}-2-methoxyphenyl)-4-[(4-methyl-1H-indol-5-yl)amino]thieno[2,3-b]pyridine-5-carbonitrile] came in with a half-inhibitory concentration (IC50) of 2 nM.

`Cc1c(Nc2c(C#N)cnc3sc(-c4ccc(F)c(C(=O)N(C)C)c4)cc23)ccc2[nH]ccc12` [Compound 518, 5-{5-cyano-4-[(4-methyl-1H-indol-5-yl)amino]thieno[2,3-b]pyridin-2-yl}-2-fluoro-N,N-dimethylbenzamide]: the half-maximal inhibitory concentration (IC50) worked out at 59 nM.

In turn, `Cc1c(Nc2c(C#N)cnc3sc(-c4cccc(N5CCCS5(=O)=O)c4)cc23)ccc2[nH]ccc12` [Compound 519, 2-[3-(1,1-dioxidoisothiazolidin-2-yl)phenyl]-4-[(4-methyl-1H-indol-5-yl)amino]thieno[2,3-b]pyridine-5-carbonitrile] came in with an IC50 of 49 nM.

`Cc1c(Nc2c(C#N)cnc3sc(-c4ccc5[nH]ccc5c4)cc23)ccc2[nH]ccc12` [Compound 520, 2-(1H-indol-5-yl)-4-[(4-methyl-1H-indol-5-yl)amino]thieno[2,3-b]pyridine-5-carbonitrile] returned an IC50 of 74 nM. Compared with the last compound, the IC50 is about 1.5-fold higher.

In the case of `Cc1c(Nc2c(C#N)cnc3sc(-c4ccc5cc[nH]c5c4)cc23)ccc2[nH]ccc12` [Compound 521, 2-(1H-indol-6-yl)-4-[(4-methyl-1H-indol-5-yl)amino]thieno[2,3-b]pyridine-5-carbonitrile], 37 nM corresponded to half-maximal inhibition (IC50).

In the case of `Cc1ccc(S(=O)(=O)n2ccc3c(Cl)c(Nc4c(C#N)cnc5sc(I)cc45)cnc32)cc1` [Compound 522, 4-({4-chloro-1-[(4-methylphenyl)sulfonyl]-1H-pyrrolo[2,3-b]pyridin-5-yl}amino)-2-iodothieno[2,3-b]pyridine-5-carbonitrile], 14100 nM corresponded to half-maximal inhibition (IC50). Compared with the last compound, the IC50 is about 380-fold higher.

Compound `Cc1c(Nc2c(C#N)cnc3sc(-c4cccnn4)cc23)ccc2[nH]ccc12` [Compound 523, 4-[(4-methyl-1H-indol-5-yl)amino]-2-pyridazin-3-ylthieno[2,3-b]pyridine-5-carbonitrile] yielded an IC50 of 15 nM.

The compound `N#Cc1cnc2sc(-c3ccccc3)cc2c1Nc1cnc2[nH]ccc2c1Cl` [Compound 524, 4-[(4-chloro-1H-pyrrolo[2,3-b]pyridin-5-yl)amino]-2-phenylthieno[2,3-b]pyridine-5-carbonitrile] showed a concentration for half-maximal inhibition (IC50) of 48 nM.

Compound `COc1c(C=O)cccc1-c1cc2c(Nc3ccc4[nH]ccc4c3C)c(C#N)cnc2s1` [Compound 525, 2-(3-formyl-2-methoxyphenyl)-4-[(4-methyl-1H-indol-5-yl)amino]thieno[2,3-b]pyridine-5-carbonitrile] showed an IC50 of 15 nM.

The compound `COc1c(CN(C)C)cccc1-c1cc2c(Nc3ccc4[nH]ccc4c3C)c(C#N)cnc2s1` [Compound 526, 2-{3-[(dimethylamino)methyl]-2-methoxyphenyl}-4-[(4-methyl-1H-indol-5-yl)amino]thieno[2,3-b]pyridine-5-carbonitrile] had an IC50 of 12 nM.

As for `Cc1c(Nc2c(C#N)cnc3sc(-c4ccnn4C)cc23)ccc2[nH]ccc12` [Compound 527, 4-[(4-methyl-1H-indol-5-yl)amino]-2-(1-methyl-1H-pyrazol-5-yl)thieno[2,3-b]pyridine-5-carbonitrile], the IC50 came out at 35 nM. Against the preceding compound, the IC50 is about 2.9-fold higher.

Tested on in another data set: not given
Test: not given
Conditions: not given
In turn, `Cl.N#Cc1cnc2sc(I)cc2c1Nc1ccc2[nH]ccc2c1` registered a melting point of 250 to 252 °C.

For `Cl.N#Cc1cnc2sc(I)cc2c1Nc1cccc2[nH]ccc12`, the melting point was greater than 245 °C.

Consider `Br.N#Cc1cnc2scc(Br)c2c1Nc1ccc2[nH]ccc2c1`, for which the melting point lay in the range of 249 to 251 °C.

The compound `Cc1c(Nc2c(C#N)cnc3sc(C#C[Si](C)(C)C)cc23)ccc2[nH]ccc12` displayed a melting point of 258 to 260 °C.

In the case of `Cc1c(Nc2c(C#N)cnc3sc(/C=C/CN4CCOCC4)cc23)ccc2[nH]ccc12` (as salt: HCl) [Compound 275, 4-[(4-methyl-1H-indol-5-yl)amino]-2-[(1E)-3-morpholin-4-ylprop-1-en-1-yl]thieno[2,3-b]pyridine-5-carbonitrile], the melting point is 230 °C (dec.).

`Cc1c(Nc2c(C#N)cnc3sc(C4CCN(Cc5ccccc5)C4)cc23)ccc2[nH]ccc12` (stereo not shown) (as salt: HCl) [Compound 479, 2-(1-benzylpyrrolidin-3-yl)-4-[(4-methyl-1H-indol-5-yl)amino]thieno[2,3-b]pyridine-5-carbonitrile]: the melting point is 185 °C (dec.).

`N#Cc1cnc2sc(I)cc2c1Nc1cccc2cc[nH]c12` [Compound 108, 4-(1H-indol-7-ylamino)-2-iodothieno[2,3-b]pyridine-5-carbonitrile] showed a melting point greater than 245 °C.

`N#Cc1cnc2sc(-c3ccccc3)cc2c1NCc1ccc2[nH]ccc2c1` [Compound 124, 4-(1H-indol-5-ylmethylamino)-2-phenylthieno[2,3-b]pyridine-5-carbonitrile] came in with a melting point of 219 to 221 °C.

Compound `N#Cc1cnc2sc(-c3ccccc3)cc2c1Oc1ccc2[nH]ccc2c1` [Compound 130, 4-(1H-indol-5-yloxy)-2-phenylthieno[2,3-b]pyridine-5-carbonitrile] displayed a melting point of 219 to 221 °C.

As to `N#Cc1cnc2sc(-c3ccc(C=O)cc3)cc2c1Nc1cccc2[nH]ccc12` [Compound 136, 2-(4-formylphenyl)-4-(1H-indol-4-ylamino)thieno[2,3-b]pyridine-5-carbonitrile], the melting point is greater than 245 °C.

Compound `N#Cc1cnc2sc(-c3cccc(C=O)c3)cc2c1Nc1cccc2[nH]ccc12` [Compound 139, 2-(3-formylphenyl)-4-(1H-indol-4-ylamino)thieno[2,3-b]pyridine-5-carbonitrile] displayed a melting point greater than 245 °C.

`N#Cc1cnc2sc(-c3ccccc3C=O)cc2c1Nc1cccc2[nH]ccc12` [Compound 142, 2-(2-formylphenyl)-4-(1H-indol-4-ylamino)thieno[2,3-b]pyridine-5-carbonitrile] displayed a melting point of 137 to 139 °C.

`N#Cc1cnc2sc(-c3cccc(C=O)c3)cc2c1Nc1ccc2[nH]ccc2c1` [Compound 144, 2-(3-formylphenyl)-4-(1H-indol-5-ylamino)thieno[2,3-b]pyridine-5-carbonitrile] yielded a melting point of 221 to 223 °C.

In turn, `N#Cc1cnc2sc(-c3ccccc3C=O)cc2c1Nc1ccc2[nH]ccc2c1` [Compound 184, 2-(2-formylphenyl)-4-(1H-indol-5-ylamino)thieno[2,3-b]pyridine-5-carbonitrile] gave a melting point of 222 to 224 °C.
